# In patent publication US20030165582A1, “Preparations that contain an extract of the plant pistia stratiotes” (priority 2000, published 2003):
# Test system: human adipocytes
# Test: Lipolytic activity: glycerol released from isolated adipocytes
# Format: cell-based
# Conditions: 90 minutes at 37° C., reference value=0
# Experimental: Method: The adipocytes were isolated from human subcutaneous tissue by the standard Rodbell method (J. of Biolog. Chem.; 1964, 239, 375-380). The extract of Examples 1 to 3 each with two extracts (batches A and B) and the comparison substances were dissolved in a Hanks reference medium with a particular salt concentration (Cell and Tissue Culture, Ed: J. Paul, Churchill and Livingstone, 1975, page 484) and then contacted with the isolated adipocytes for 90 minutes at 37° C. Two to six adipocyte preparations were investigated. The percentage increase in glycerol released was spectrophotometrically determined in the supernatant of the medium by the Carpéné method (J. de Pharmacologie; 1981; 12;219-224).
Compound,% Increase in glycerol released (0.1 μM),% Increase in glycerol released (1.0 mM)
CC(C)NCC(O)c1ccc(O)c(O)c1 (centres unmarked) [Isoprenalin],129%,–
Cn1c(=O)c2[nH]cnc2n(C)c1=O [Theophylline],–,187%
